US11214556B1, “Method of treating colorectal cancer” (King Abdulaziz University, priority 2019, dated 2022)

Legend:
[1] = test system: HCT-116 cells; assay: SRB cytotoxicity assay, HCT-116; format: cell-based, human; conditions: SRB assay, 72 h exposure, ± SEM
Protocol: Compounds in this study were tested against colorectal cancer cell line HCT-116, using sulforhodamine-B (SRB) assay. See Skehan, P.; Storeng, R.; Scudiero, D.; Monks, A.; McMahon, J.; Vistica, D.; Warren, J. T.; Bokesch, H.; Kenney, S.; Boyd, M. R., New colorimetric cytotoxicity assay for anticancer-drug screening. J Natl Cancer Inst 1990, 82 (13), 1107-12, incorporated herein by reference in its entirety. […] However, it was clear that compounds bearing hydrophobic aliphatic groups such as MOS-1505 and MOS-1512 are clearly favored in providing anticancer activities. […] The N-aryl substituents were less advantageous in both potency and solubility.
(§1) Different cell lines were originally purchased from American type culture collection (ATCC, Wesel, Germany) and grown in the tissue culture lab of the Egyptian company for production of vaccines, sera and drugs (Vacsera, Giza, Egypt). The cells were transferred to our laboratory and maintained in the appropriate media as following. HCT-116, CACO-2, and HT-29 (human colon cancer cell lines) were maintained in Roswell Park Memorial Institute medium (RPMI1640) (Invitrogen, Carlsbad, Calif.). The mouse skin fibroblasts (C-166) and Baby Hamster Kidney fibroblasts (BHK) were grown in Dulbecco Modified Eagle's medium (DMEM). Both media were supplemented with 1% of […] of streptomycin, 100 units/mL of penicillin and 10% of heat-inactivated fetal bovine serum (Invitrogen, Carlsbad, Calif.) in a humidified, 5% (v/v) CO2 atmosphere at 37° C.
(§2) The sulforhodamine B (SRB) assays were performed according to Skehan, P.; Storeng, R.; Scudiero, D.; Monks, A.; McMahon, J.; Vistica, D.; Warren, J. T.; Bokesch, H.; Kenney, S.; Boyd, M. R., New colorimetric cytotoxicity assay for anticancer-drug screening. J Natl Cancer Inst 1990, 82 (13), 1107-12, incorporated herein by reference in its entirety. Briefly, exponentially growing cells were trypsinized, counted and seeded at the appropriate densities (5000 cells/100 μL/well) into 96-well microtiter plates. Cells were incubated in a humidified atmosphere at 37° C. for 24 h. Then, the cells were exposed to different compounds at the desired concentrations, (0.01, 0.1, 1, 10, and 100 μM) or to 1% dimethyl sulfoxide (DMSO) for 72 h. At the end of the treatment period, the media were removed, and the cells were fixed with 10% trichloroacetic acid at 4° C. for 1 hr. Following, the cells were washed with tap water four times and incubated with SRB 0.4% for 30 min. Excess dye was removed by washing repeatedly with 1% (vol/vol) acetic acid. The protein-bound dye was dissolved in 10 mM Tris base solution for (optical density) OD determination at 510 nm using a SpectraMax plus Microplate Reader (Molecular Devices, CA). Cell viability was expressed relative to the untreated control cells.

[2] = Solubility profile; format: physicochemical; conditions: stated in words together with C log P
[3] = test system: CRC cell lines (HCT-116, Caco-2 and HT-29); assay: Cytotoxic activities against CRC cell lines (statement over three lines); format: cell-based; conditions: Homo sapiens
Text: (§3) Based on the favorable pharmacologic and physicochemical properties of MOS-1512, it was selected as a new lead for the second subset of compounds (MOS-1812 to MOS-5112). The compounds in this series contained variable groups at R^1 and R^2 that were all tested against the three cancer cell lines (HCT-116, Caco-2 and HT-29).
as §1, §2

[4] = test system: CACO-2 cells; assay: SRB cytotoxicity assay, CACO-2; format: cell-based, human; conditions: ± SEM
Text: as §3, §1, §2

[5] = test system: HT-29 cells; assay: SRB cytotoxicity assay, HT-29; format: cell-based, human; conditions: 72 h exposure, ± SEM
Text: as §3, §1, §2

[6] = Homo sapiens, Caco-2, 72 h exposure

Compound | IC50 ([1]; Homo sapiens, HCT-116) | IC50 [4, 6] | IC50 ([5]; Homo sapiens, HT-29, monolayer) | also measured
CCOC(=O)/C(=C/c1ccccc1)NC(=O)C=Cc1ccccc1 [Compound 15EE, Ethyl (Z)-2-cinnamamido-3-phenylacrylate] |  |  |  | melting point: 153 °C
O=C(C=Cc1ccccc1)N/C(=C\c1ccccc1)C(=O)NC1CCCC1 [Compound 1503, (Z)-2-cinnamamido-N-cyclopentyl-3-phenylacrylamide] | 48.5 ± 3.1 µM |  |  | melting point: 239 °C
O=C(C=Cc1ccccc1)N/C(=C\c1ccccc1)C(=O)NC12CC3CC(CC(C3)C1)C2 [Compound 1505, (Z)—N-(1-adamantanyl)-2-cinnamamido-3-phenylacrylamide] | 14.7 ± 0.3 µM |  |  | solubility [2]: poor solubility
O=C(/C=C/c1ccccc1)N/C(=C\c1ccccc1)C(=O)Nc1cccnc1 [Compound 1507, (Z)-2-[(E)-cinnamamido]-3-phenyl-N-(3-pyridyl)acrylamide] | > 100 µM |  |  | melting point: > 250 °C (dec.)
O=C(/C=C/c1ccccc1)N/C(=C\c1ccccc1)C(=O)NCCO [Compound 1532, (Z)-2-[(E)-cinnamamido]-N-(2-hydroxyethyl)-3-phenyl-acrylamide] | > 100 µM |  |  | melting point: 204 °C
CCCNC(=O)/C(=C/c1ccc(F)cc1)NC(=O)/C=C/c1ccc(Cl)cc1 [Compound 2312, (Z)-2-[(E)-3-(4-chlorophenyl)acrylamido]-3-(4-fluorophenyl)-N-propylacrylamide] | 3.8 ± 0.24 µM | 2.6 ± 0.233 µM | 4 ± 0.14 µM | IC50 [3]: < 5 µM
CCCNC(=O)/C(=C/c1ccc(N(C)C)cc1)NC(=O)/C=C/c1ccc(Cl)cc1 [Compound 2812, (Z)-2-[(E)-3-(4-chlorophenyl)acrylamido]-3-[4-(dimethylamino)phenyl]-N-propylacrylamide] | 20.7 ± 0.32 µM | 17 ± 0.8 µM | 9.52 ± 0.42 µM | IC50 [3]: < 5 µM
CCCNC(=O)/C(=C/c1c[nH]c2ccccc12)NC(=O)/C=C/c1ccc(Cl)cc1 [Compound 3812, (Z)-2-[(E)-3-(4-chlorophenyl)acrylamido]-3-(1H-indol-3-yl)-N-propylacrylamide] | 3.51 ± 0.21 µM | 3.35 ± 0.05 µM | 3.41 ± 0.03 µM | IC50 [3]: < 5 µM
CCCNC(=O)/C(=C/c1c[nH]c2ccccc12)NC(=O)/C=C/c1ccc(OC)cc1 [Compound 3912, (Z)-3-(1H-indol-3-yl)-2-[(E)-3-(4-methoxyphenyl)acrylamido]-N-propylacrylamide] | 4.35 ± 0.29 µM | 2.07 ± 0.03 µM | 2.49 ± 0.04 µM | IC50 [3]: < 5 µM
CCCNC(=O)/C(=C/c1cccnc1)NC(=O)C=Cc1ccccc1 [Compound 4212, (Z)-2-cinnamamido-N-propyl-3-(pyridin-3-yl)acrylamide] | 73 ± 2.5 µM | 66 ± 2.2 µM | > 100 µM | 
CCCNC(=O)/C(=C/c1cccnc1)NC(=O)/C=C/c1ccc(Cl)cc1 [Compound 4312, (Z)-2-[(E)-3-(4-chlorophenyl)acrylamido]-N-propyl-3-(pyridin-3-yl)acrylamide] | 49.4 ± 1.9 µM | 47.3 ± 1.9 µM | 36 ± 1.7 µM | 
CCCNC(=O)/C(=C/c1cccnc1)NC(=O)/C=C/c1ccc(OC)cc1 [Compound 4412, (Z)-2-[(E)-3-(4-methoxyphenyl)acrylamido]-N-propyl-3-(pyridin-3-yl)acrylamide] | 52.1 ± 1.6 µM | 38.1 ± 2 µM | 72.7 ± 6.4 µM | 
CCCNC(=O)/C(=C/c1cccnc1)NC(=O)/C=C/c1ccc(C)cc1 [Compound 4512, (Z)—N-propyl-3-(pyridin-3-yl)-2-[(E)-3-(p-tolyl)acrylamidolacry]amide] |  |  |  | IC50 [1]: > 100 µM; IC50 ([4]; 72 h exposure): 27 ± 1.8 µM; IC50 ([5]; monolayer): > 100 µM
CCCNC(=O)/C(=C/c1cccnc1)NC(=O)/C=C/c1cccs1 [Compound 4612, (Z)—N-propyl-3-(pyridin-3-yl)-2-[(E)-3-(thien-2-yl)acrylamidolacry]amide] |  |  |  | IC50 [1]: > 100 µM; IC50 ([4]; 72 h exposure): 41.8 ± 1.4 µM; IC50 ([5]; monolayer): 68.8 ± 6.9 µM
CCCNC(=O)/C(=C/c1ccc([N+](=O)[O-])cc1)NC(=O)C=Cc1ccccc1 [Compound 4712, (Z)-2-cinnamamido-3-(4-nitrophenyl)-N-propylacrylamide] | 17.3 ± 1.3 µM | 44.2 ± 2.7 µM | 23.2 ± 1.9 µM | 
CCCNC(=O)/C(=C/c1ccc([N+](=O)[O-])cc1)NC(=O)/C=C/c1ccc(Cl)cc1 [Compound 4812, (Z)-2-[(E)-3-(4-chlorophenyl)acrylamido]-3-(4-nitrophenyl)-N-propylacrylamide] | > 100 µM | > 100 µM | 36.9 ± 1.5 µM | 
CCCNC(=O)/C(=C/c1ccc([N+](=O)[O-])cc1)NC(=O)/C=C/c1ccc(OC)cc1 [Compound 4912, (Z)-2-[(E)-3-(4-methoxyphenyl)acrylamido]-3-(4-nitrophenyl)-N-propylacrylamide] | > 100 µM | > 100 µM | 74.3 ± 3.6 µM | 
CCCNC(=O)/C(=C/c1ccc([N+](=O)[O-])cc1)NC(=O)/C=C/c1ccc(C)cc1 [Compound 5012, (Z)-3-(4-nitrophenyl)-N-propyl-2-[(E)-3-(p-tolyl)acrylamidolacry]amide] |  |  |  | IC50 [1]: > 100 µM; IC50 ([4]; 72 h exposure): > 100 µM; IC50 ([5]; monolayer): > 100 µM
CCCNC(=O)/C(=C/c1ccc([N+](=O)[O-])cc1)NC(=O)/C=C/c1cccs1 [Compound 5112, (Z)-3-(4-nitrophenyl)-N-propyl-2-[(E)-3-(thien-2-yl)acrylamidolacry]amide] |  |  |  | IC50 [1]: > 100 µM; IC50 ([4]; 72 h exposure): 34.2 ± 1.1 µM; IC50 ([5]; monolayer): > 100 µM
COc1cccc2c1C(=O)c1c(O)c3c(c(O)c1C2=O)C[C@@](O)(C(=O)CO)C[C@@H]3O[C@H]1C[C@H](N)[C@H](O)[C@H](C)O1 [Doxo, doxorubicin, reference compound] | 0.6 ± 0.1 µM | 0.14 ± 0.05 µM | 0.3 ± 0.01 µM | 
